# Measurements: patent US12031136B2, “Treatment for skeletal diseases caused by intracellular protein trafficking defects” (Oklahoma Medical Research Foundation, priority 2017, dated 2024)
# “Also recorded” adds a separate entry of the source.
# Assays:
# [1] = Growth hormone replacement therapy in the patient; format: in vivo, human; conditions: started, discontinued after 1 year
# [2] = test system: mutant MBTPS1 transcripts; assay: Nonsense-mediated mRNA decay test in parental immortalized B cells; format: cell-based, human; conditions: cycloheximide 100 μM, 6 hours
# Description: (§1) Gene expression analyses with qPCR. Gene expression levels in the patient and irrelevant healthy control immortalized B cells or immortalized fibroblasts were analyzed by qPCR using primers listed in Supplemental Table 3. Total RNA extracted from the cells using Trizol was converted to cDNA using the M-MLV Reverse Transcriptase system. PCR analysis of cDNA was performed with the SYBR Green qPCR system using a CFX96 Real-time system instrument (Bio-Rad). To test for NMD, treatment with cycloheximide (100 μM) was performed by incubating patient's parental immortalized B cells for 6 hours, and then transcripts were analyzed by direct sequencing.
# [3] = test system: UPR- and COP-II-related genes; assay: qRT-PCR of UPR- and COP-II-related genes in patient fibroblasts after AMO; format: cell-based, human; conditions: patient fibroblasts treated with AMO
# Description: as §1
# AMO. The AMO (5′-AGAAAAGCGGGCGATGTTAcCTTCA-3′ [the lowercase “c” represents the mutated base compared to healthy control]) against exon 9 in the maternal mutant transcript containing cryptic splice donor site was designed (Gene Tools Inc.) (38). Forty thousand fibroblasts were seeded onto a 24-well plate. […] After 12, 24, and 48 hours, RNA was extracted for quantitative RT-PCR as well as cloning of MBTPS1 cDNA. The following primer pair was used to quantify a MBTPS1 transcript with 41-bp deletion in exon 9: forward primer targeting the boundary exons 7 and 8, 5′-[…]-3′; reverse primer targeting exon 10, 5′-CTGG-TAGCTCCTTCAAAGTC-3′.
# MBTPS1 transcripts = assay: MBTPS1 transcript analysis (qRT-PCR and cloning of exon 9 cDNA) in fibroblasts treated with AMO; format: cell-based, human
# Description: as §1
# AMO. The AMO (5′-AGAAAAGCGGGCGATGTTAcCTTCA-3′ [the lowercase “c” represents the mutated base compared to healthy control]) against exon 9 in the maternal mutant transcript containing cryptic splice donor site was designed (Gene Tools Inc.) (38). Forty thousand fibroblasts were seeded onto a 24-well plate. Introduction of AMO (10 μM) in maternal and patient fibroblasts was carried out using the Endo-Porter (6 μM) peptide delivery system (Gene Tools Inc.). After 12, 24, and 48 hours, RNA was extracted for quantitative RT-PCR as well as cloning of MBTPS1 cDNA. The following primer pair was used to quantify a MBTPS1 transcript with 41-bp deletion in exon 9: forward primer targeting the boundary exons 7 and 8, 5′-[…]-3′; reverse primer targeting exon 10, 5′-CTGG-TAGCTCCTTCAAAGTC-3′.
# BBF2H7 = assay: Western blotting of endogenous BBF2H7 cleavage in AMO-treated patient fibroblasts; format: cell-based, human; conditions: AMO vs control oligo
# Description: (§2) Western blotting. Protein extracts from cultured cells or tissues were prepared using a 1% Triton X-100-based cell lysis buffer. Lysates were applied to an 8%-12% SDS-PAGE gel. Separated proteins were transferred onto an Immobilon-P membrane (Millipore). After blots were blocked, the membranes were incubated with antibodies and were then developed with ECL systems. Exposed X-ray films were scanned and analyzed with ImageJ software (NIH). For protein extraction from cartilage from mouse ribs, proteins from frozen tissues were extracted into 8 M urea lysis buffer using Bead-beater (34) (Biospec Products Inc.). For detecting endogenous GPT in immortalized B cells, 1.5×10^7 cells were suspended in hypotonic lysis buffer and then ultrasonicated for 30 seconds. After removing debris by spinning at 1,000 g for 3 minutes, supernatant was further ultracentrifuged at 100,000 g for 2 hours. The membrane fractions were solubilized with 3% Triton X-100-containing lysis buffer, 150 μg protein was analyzed by Western blotting.
# AMO. […] After 12, 24, and 48 hours, RNA was extracted for quantitative RT-PCR as well as cloning of MBTPS1 cDNA. The following primer pair was used to quantify a MBTPS1 transcript with 41-bp deletion in exon 9: forward primer targeting the boundary exons 7 and 8, 5′-[…]-3′; reverse primer targeting exon 10, 5′-CTGG-TAGCTCCTTCAAAGTC-3′.
# patient fibroblasts = assay: Secreted procollagen I ELISA of fibroblast supernatant; format: cell-based, human
# Description: Measurement of secreted procollagen I. Supernatant from cultured fibroblasts was collected at 48 hours after treatment with AMO and was then diluted 500-fold with PBS (39). Secreted procollagen 1a in diluted samples was measured with an ELISA kit according to the manufacturer's instructions (R&D Systems).
# Tango1 and Hsp47 = assay: Western blotting of Sec23a, Tango1 and Hsp47 in fibroblasts; format: cell-based, human; conditions: patient fibroblasts treated with S1P inhibitor
# Description: as §2
# [4] = test system: maternal and patient fibroblasts; assay: Lysosomal enzyme secretion and lysosome morphology in fibroblasts treated with S1P inhibitor; format: cell-based, human; conditions: maternal and patient fibroblasts treated with PF-429242
compound,measurement,setting,value
Human growth hormone: Human growth hormone replacement therapy given to the patient,clinical response (growth),[1],limited response
C[C@@H]1C[C@@H]([C@H](O)CC2CC(=O)NC(=O)C2)C(=O)[C@@H](C)C1 [cycloheximide],mutant MBTPS1 transcripts (NMD inhibition),[2],stabilized
AMO: Antisense morpholino oligo 5′-AGAAAAGCGGGCGATGTTAcCTTCA-3′ against exon 9 cryptic splice donor site in the maternal mutant MBTPS1 transcript (antisense AGAAAAGCGGGCGATGTTACCTTCA; all phosphorodiamidate morpholino (PMO)),expression of UPR- and COP-II-related genes,[3],increased
same,41-bp-deleted pathogenic splice variant,"MBTPS1 transcripts; patient cells, compared with control oligo",substantial decrease
same,increase of total MBTPS1 expression,"MBTPS1 transcripts; patient fibroblasts treated with AMO, data not shown",10 fold
same,increase in properly spliced MBTPS1 transcripts,"MBTPS1 transcripts; patient fibroblasts, AMO 10 μM, compared with control oligo",20 fold
same,increase in correctly spliced transcript (cloned exon 9 of MBTPS1 cDNA),"MBTPS1 transcripts; patient fibroblasts, compared with control oligo treatment",2 fold
same,increase of absolute maternal transcript with a missense mutation (p.D365G),"MBTPS1 transcripts; patient fibroblasts, compared with control oligo-treated cells",20 fold
same,S1P-dependent activation (cleavage) of BBF2H7,BBF2H7,improved cleavage; also recorded: increased
same,secretion of collagen I (secreted procollagen I),"patient fibroblasts; patient fibroblasts, 48 hours after AMO",increased
PF-429242,Tango1 and Hsp47 protein,Tango1 and Hsp47,further decreased
same,lysosome size,[4],lysosomal hypertrophy
same,secretion of lysosomal enzymes,[4],elevated
same,collagen I secretion,patient fibroblasts; patient fibroblasts treated with S1P inhibitor,impaired
